From patent US20260085082A1, “KDM1A INHIBITORS FOR THE TREATMENT OF DISEASE” (Imago Biosciences, Inc., priority 2022, published 2026)
Read-outs that look alike come from different tables or passages of the source.

Assays:
[1] = test system: MV4;11 cells; experiment: Cell Titer-Glo Luminescent Cell Viability Assay, cell growth inhibition against MV4;11 cells; format: cell-based; settings: Homo sapiens
Procedure: Cell growth inhibition against MV4;11 cells was confirmed for the synthetic compounds. The Cell Titer-Glo Luminescent Cell Viability Assay (Promega, USA) was used to determine the number of viable cells in culture based on quantitation of the ATP present, which signals the presence of metabolically active cells. This assay was run in a 96-well plate format arrayed in a 10-point dose curve, ranging from 0 to 50 μM with 4-fold dilutions for each compound. Cells are seeded on Day 0 at 3750 cells per well. At Day 5, a portion of each well is assayed for viability according to the Cell Titer-Glo protocol. Briefly, cells/plates were centrifuged at 1100×g for 5 minutes. 100 μL of media was removed from each well and replaced with 100 μL of CellTiter-Glo. The plates were shaken at room temperature for 10 minutes and measured on a luminescence plate reader. Another portion of each well from the Day 5 plate is used to seed a new 96 plate containing fresh compound and media set up in the equivalent 10-point dose curve array in order to continue the cell growth inhibition assay for another 5 days. A final timepoint is collected at Day 10 using the Cell Titer-Glo protocol. Luminescence was detected on an EnVision® Multilabel Plate Reader (Perkin Elmer, Waltham, Mass.) and IC50 determination was made using Graph Pad Prism software.

[2] = molecular target: LSD1 (Homo sapiens, UniProt O60341); experiment: LSD1 10-dose IC50 fluorescence coupling enzyme assay (HRP/Amplex Red, resorufin); format: biochemical; settings: 10 M histone H3(1-21)K4me2 peptide substrate; 3-fold serial dilution in duplicate starting at 100 μM
Procedure: Compounds were tested in a 10-dose IC50 mode fluorescence coupling enzyme assay with 3-fold serial dilution in duplicate starting at 100 μM. The production of FAD-dependent H2O2 as a result of demethylase activity of LSD1 on […] histone H3(1-21)K4me2 peptide substrate was measured by coupling with HRP and Amplex Red to yield resorufin (fluorescence measured at Ex/Em=535/590 nm on EnVision, Perkin Elmer).

[3] = MV4-11, 120 h, MV4;11 cells, Day 5, 10-point dose curve 0 to 50 μM, read-out: Cell Titer Glo IC50 (5 d)
[4] = MV4-11, MV4;11 cells, Day 10 (re-seeded at Day 5 with fresh compound), 10-point dose curve 0 to 50 μM, read-out: Cell Titer Glo IC50 (10 d)

| IC50 [1, 3] [µM] | IC50 [2] [µM] | SMILES | IC50 [1, 4] [µM] |
| --- | --- | --- | --- |
| 1 to 10 | 1 to 10 | COc1ccc(-n2nc(C(=O)N[C@@H]3CCC[C@@H](N)C3)cc2-c2ccc(C#N)c(F)c2)cc1 [Example 23, N-((1R,3R)-3-aminocyclohexyl)-5-(4-cyano-3-fluorophenyl)-1-(4-methoxyphenyl)-1H-pyrazole-3-carboxamide 2,2,2-trifluoroacetate] |  |
| 1 to 10 | 1 to 10 | COc1ccc(-n2nc(C(=O)NC3CCNCC3)cc2-c2ccc(C#N)c(F)c2)cc1 [Example 24, 5-(4-Cyano-3-fluorophenyl)-1-(4-methoxyphenyl)-N-(piperidin-4-yl)-1H-pyrazole-3-carboxamide] |  |
| 1 to 10 | 1 to 10 | COc1ccc(-n2nc(C(=O)N[C@H]3CCC[C@H](N)C3)cc2-c2ccc(C#N)c(F)c2)cc1 [Example 25, N-((1S,3S)-3-aminocyclohexyl)-5-(4-cyano-3-fluorophenyl)-1-(4-methoxyphenyl)-1H-pyrazole-3-carboxamide 2,2,2-trifluoroacetate] |  |
| 1 to 10 | 0.5 to 1 | COc1ccc(-n2nc(C(=O)N[C@H]3CCNC3)cc2-c2ccc(C#N)c(F)c2)cc1 [Example 26, (S)-5-(4-cyano-3-fluorophenyl)-1-(4-methoxyphenyl)-N-(pyrrolidin-3-yl)-1H-pyrazole-3-carboxamide 2,2,2-trifluoroacetate] |  |
| 1 to 10 | 1 to 10 | COc1ccc(-n2nc(C(=O)N[C@@H]3CCNC3)cc2-c2ccc(C#N)c(F)c2)cc1 [Example 27, (R)-5-(4-cyano-3-fluorophenyl)-1-(4-methoxyphenyl)-N-(pyrrolidin-3-yl)-1H-pyrazole-3-carboxamide 2,2,2-trifluoroacetate] |  |
| 1 to 10 | 0.5 to 1 | COc1ccc(-n2nc(C(=O)N[C@@H]3CCC[C@H](N)C3)cc2-c2ccc(C#N)c(F)c2)cc1 [Example 28, N-((1R,3S)-3-aminocyclohexyl)-5-(4-cyano-3-fluorophenyl)-1-(4-methoxyphenyl)-1H-pyrazole-3-carboxamide 2,2,2-trifluoroacetate] |  |
| > 10 | 1 to 10 | COc1ccc(-n2nc(C(=O)N3CCCC(NC(=N)N)C3)cc2-c2ccc(C#N)c(F)c2)cc1 (stereo not shown) [Example 29, 1-(1-(5-(4-Cyano-3-fluorophenyl)-1-(4-methoxyphenyl)-1H-pyrazole-3-carbonyl)piperidin-3-yl)guanidine 2,2,2-trifluoroacetate] |  |
| > 10 | > 10 | COc1ccc(-n2nc(C(=O)N3CC(N)C3)cc2-c2ccc(C#N)c(F)c2)cc1 [Example 31, 4-(3-(3-Aminoazetidine-1-carbonyl)-1-(4-methoxyphenyl)-1H-pyrazol-5-yl)-2-fluorobenzonitrile 2,2,2-trifluoroacetate] |  |
| 1 to 10 | 1 to 10 | COc1ccc(-n2nc(C(=O)N3CC(CN)C3)cc2-c2ccc(C#N)c(F)c2)cc1 [Example 32, 4-(3-(3-(Aminomethyl)azetidine-1-carbonyl)-1-(4-methoxyphenyl)-1H-pyrazol-5-yl)-2-fluorobenzonitrile 2,2,2-trifluoroacetate] |  |
| < 0.5 | < 0.5 | COc1ccc(Cn2nc(C(=O)N3CCC[C@@H](N)C3)cc2-c2ccc(C#N)c(F)c2)cc1 [Example 33, (R)-4-(3-(3-aminopiperidine-1-carbonyl)-1-(4-methoxybenzyl)-1H-pyrazol-5-yl)-2-fluorobenzonitrile 2,2,2-trifluoroacetate] |  |
| 1 to 10 | 0.5 to 1 | COc1ccc(Cn2nc(C(=O)N3CCC[C@H](N)C3)cc2-c2ccc(C#N)c(F)c2)cc1 [Example 34, (S)-4-(3-(3-aminopiperidine-1-carbonyl)-1-(4-methoxybenzyl)-1H-pyrazol-5-yl)-2-fluorobenzonitrile 2,2,2-trifluoroacetate] |  |
| < 0.5 | < 0.5 | COc1ccc(-n2nc(C(=O)N3CCCC(N)C3)cc2-c2ccc(C#N)c(F)c2)cc1F (stereo not shown) [Example 35, 4-(3-(3-Aminopiperidine-1-carbonyl)-1-(3-fluoro-4-methoxyphenyl)-1H-pyrazol-5-yl)-2-fluorobenzonitrile] |  |
| < 0.5 | < 0.5 | COc1ccc(-n2nc(C(=O)N3CCC[C@@H](N)C3)cc2-c2ccc(C#N)c(F)c2)cc1F [Example 36, (R)-4-(3-(3-aminopiperidine-1-carbonyl)-1-(3-fluoro-4-methoxyphenyl)-1H-pyrazol-5-yl)-2-fluorobenzonitrile] |  |
| 1 to 10 | 0.5 to 1 | COc1ccc(-n2nc(C(=O)N3CCC[C@H](N)C3)cc2-c2ccc(C#N)c(F)c2)cc1F [Example 37, (S)-4-(3-(3-aminopiperidine-1-carbonyl)-1-(3-fluoro-4-methoxyphenyl)-1H-pyrazol-5-yl)-2-fluorobenzonitrile] |  |
| 1 to 10 | > 10 | Cc1cc(CCn2nc(C(=O)N3CCC[C@@H](N)C3)cc2-c2ccc(C#N)c(F)c2)on1 [Example 38, (R)-4-(3-(3-aminopiperidine-1-carbonyl)-1-(2-(3-methylisoxazol-5-yl)ethyl)-1H-pyrazol-5-yl)-2-fluorobenzonitrile] |  |
| > 10 | > 10 | Cc1cc(CCn2nc(C(=O)N3CCC[C@H](N)C3)cc2-c2ccc(C#N)c(F)c2)on1 [Example 39, (S)-4-(3-(3-aminopiperidine-1-carbonyl)-1-(2-(3-methylisoxazol-5-yl)ethyl)-1H-pyrazol-5-yl)-2-fluorobenzonitrile] |  |
| < 0.5 | < 0.5 | Cn1cc2cc(-n3nc(C(=O)N4CCCC(N)C4)cc3-c3ccc(C#N)c(F)c3)ccc2n1 (stereo not shown) [Example 40, 4-(3-(3-Aminopiperidine-1-carbonyl)-1-(2-methyl-2H-indazol-5-yl)-1H-pyrazol-5-yl)-2-fluorobenzonitrile] |  |
| 1 to 10 | < 0.5 | Cn1cc2cc(-n3nc(-c4ccc(C#N)c(F)c4)cc3C(=O)N3CCCC(N)C3)ccc2n1 (stereo not shown) [Example 41, 4-(5-(3-Aminopiperidine-1-carbonyl)-1-(2-methyl-2H-indazol-5-yl)-1H-pyrazol-3-yl)-2-fluorobenzonitrile] |  |
| 0.5 to 1 | < 0.5 | Cn1ncc2cc(-n3nc(C(=O)N4CCC[C@H](N)C4)cc3-c3ccc(C#N)c(F)c3)ccc21 [Example 42, (S)-4-(3-(3-aminopiperidine-1-carbonyl)-1-(1-methyl-1H-indazol-5-yl)-1H-pyrazol-5-yl)-2-fluorobenzonitrile 2,2,2-trifluoroacetate] | < 0.5 |
|  | < 0.5 | Cn1ncc2cc(-n3nc(C(=O)N4CCC[C@@H](N)C4)cc3-c3ccc(C#N)c(F)c3)ccc21 [Example 43, (R)-4-(3-(3-aminopiperidine-1-carbonyl)-1-(1-methyl-1H-indazol-5-yl)-1H-pyrazol-5-yl)-2-fluorobenzonitrile 2,2,2-trifluoroacetate] | < 0.5 |
| < 0.5 | < 0.5 | Cn1cc2cc(-n3nc(C(=O)N4CCC[C@H](N)C4)cc3-c3ccc(C#N)c(F)c3)ccc2n1 [Example 44, (S)-4-(3-(3-aminopiperidine-1-carbonyl)-1-(2-methyl-2H-indazol-5-yl)-1H-pyrazol-5-yl)-2-fluorobenzonitrile 2,2,2-trifluoroacetate] | < 0.5 |
|  | < 0.5 | N#Cc1ccc(-c2cc(C(=O)N3CCC[C@@H](N)C3)nn2-c2ccc(N3CCC(OCCO)CC3)cc2)cc1F [Example 45, (R)-4-(3-(3-aminopiperidine-1-carbonyl)-1-(4-(4-(2-hydroxyethoxy)piperidin-1-yl)phenyl)-1H-pyrazol-5-yl)-2-fluorobenzonitrile] | < 0.5 |
|  | < 0.5 | N#Cc1ccc(-c2cc(C(=O)N3CCC[C@@H](N)C3)nn2-c2ccc(N3CCC(=O)CC3)cc2)cc1F [Example 46, (R)-4-(3-(3-aminopiperidine-1-carbonyl)-1-(4-(4-oxopiperidin-1-yl)phenyl)-1H-pyrazol-5-yl)-2-fluorobenzonitrile] | < 0.5 |
|  | < 0.5 | CC1(O)CCN(c2ccc(-n3nc(C(=O)N4CCC[C@@H](N)C4)cc3-c3ccc(C#N)c(F)c3)cc2)CC1 [Example 47, (R)-4-(3-(3-aminopiperidine-1-carbonyl)-1-(4-(4-hydroxy-4-methylpiperidin-1-yl)phenyl)-1H-pyrazol-5-yl)-2-fluorobenzonitrile 2,2,2-trifluoroacetate] | < 0.5 |
|  | < 0.5 | N#Cc1ccc(-c2cc(C(=O)N3CCC[C@@H](N)C3)nn2-c2ccc(N3CCC(C#N)CC3)cc2)cc1F [Example 48, (R)-1-(4-(3-(3-aminopiperidine-1-carbonyl)-5-(4-cyano-3-fluorophenyl)-1H-pyrazol-1-yl)phenyl)piperidine-4-carbonitrile 2,2,2-trifluoroacetate] | < 0.5 |
